System: human fibroblasts
Test: Presence or absence of fatty acids in serum-free induction medium, Ucp1 and Ckmt1 by QRT-PCR (Test Example E)
Type: cell-based
Conditions: brown adipocytes induced from fibroblasts; FIGS. 8 and 9
Protocol: After the human fibroblasts reached 80% to 90% confluency, the medium in the dish was replaced with SFBAM which is serum-free or SFBAM in which albumin and fatty acid components were changed to the combinations shown in Table 10 of the compounds shown in Table 9, both of which contain all the compounds shown in Table 3, and the human fibroblasts were cultured in said respective media for three weeks (Examples 11 to 14). The medium was changed every three days. Thereafter, the expression amounts of marker genes, Ucp1 and Ckmt1, specific for brown adipose tissue were quantified by QRT-PCR. Symbol 1 (control) in the figures represents the result in SFBAM without the compounds shown in Table 3 necessary for induction into brown adipocytes.

fatty acid-unbound albumin: Fatty acid-free albumin, in which a fatty acid is removed from an albumin (017-15146, FUJIFILM Wako)
Expression levels of Ucp1 genes versus induction with fatty acid-bound albumin: much higher
